The values below come from patent publication US12466838B2, “Crystalline form of a multi-tyrosine kinase inhibitor, method of preparation, and use thereof” (Mirati Therapeutics, Inc., priority 2019, dated 2025).

Series [1] relates to tyrosine kinases, including RET, CBL, CHR4q12, DDR and Trk. Particulars: cited from earlier work.
Series [2] has as its system human xenograft tumor models. The note with it: multiple human xenograft tumor models in mice; cited from earlier work.
Series [3] can be described thus: Drying experiments (non-solvent based), solid form by XRPD. The series is classed as physicochemical. The note with it: Vacuum oven drying, ~40° C., 2.5. How it is done:
(§1) XRPD patterns were collected with a PANalytical X'Pert PRO MPD diffractometer using an incident beam of Cu radiation produced using an Optix long, fine-focus source. An elliptically graded multilayer mirror was used to focus Cu Kα X-ray radiation through the specimen and onto the detector. Prior to the analysis, a silicon specimen (NIST SRM 640d) was analyzed to verify the observed position of the Si (111) peak is consistent with the NIST-certified position. A specimen of the sample was sandwiched between 3-μm-thick films and analyzed in transmission geometry. A beam-stop, short antiscatter extension, and antiscatter knife edge, were used to minimize the background generated by air. Soller slits for the incident and diffracted beams were used to minimize broadening from axial divergence. Diffraction patterns were collected using a scanning position-sensitive detector (X'Celerator) located 240 mm from the specimen and Data Collector software v. 2.2b.
Limited non-solvent based experiments were conducted with materials generated during the stable form screen and included short term vacuum drying at elevated temperature.

The nature of series [4]: Preliminary physical stability assessment of Form D, XRPD. Type of series: physicochemical. As for the experimental part: as §1, with “2.2b. Preliminary physical stability assessment of Form D was performed. […] The XRPD patterns of the stressed materials show no significant peak shifts compared to the untreated samples. The XRPD pattern of Form D obtained from high water activity slurry is consistent with the pattern of the untreated material. However, small shifts of selected peaks were observed, possibly due to hydration.” for “2.2b.”

A short description of series [5]: Slurry interconversion experiments, solid form by XRPD. The series is classed as physicochemical. Particulars: slurry of Forms C, D, and H in ethyl acetate. How it is done: as §1
To investigate the relationship between selected materials produced during screening, limited slurry interconversion experiments were conducted. The experiments were performed by slurring seeds of solids of interest at ambient temperature in two different solvent systems. All materials were vacuum dried prior to the slurry (˜40° C., ˜2.5 hours). Solvent conditions were selected to achieve sufficient solubility of materials tested. […]

“Also recorded” adds a separate entry of the source.

As for `COCCNCc1ccc(-c2cc3nccc(Oc4ccc(NC(=O)C5(C(=O)Nc6ccc(F)cc6)CC5)cc4F)c3s2)nc1` [Compound 1, N-(3-fluoro-4-((2-(5-(((2-methoxyethyl)amino)methyl)pyridin-2-yl)thieno[3,2-b]pyridin-7-yl)oxy)phenyl)-N-(4-fluorophenyl)cyclopropane-1,1-dicarboxamide], in series [1], the “inhibition of a closely related spectrum of tyrosine kinases” value is “potent inhibition”. The tumor regression result in series [2] is recorded as “shows tumor regression”.
On to `COCCNCc1ccc(-c2cc3nccc(Oc4ccc(NC(=O)C5(C(=O)Nc6ccc(F)cc6)CC5)cc4F)c3s2)nc1` [Form C, N-(3-fluoro-4-((2-(5-(((2-methoxyethyl)amino)methyl)pyridin-2-yl)thieno[3,2-b]pyridin-7-yl)oxy)phenyl)-N-(4-fluorophenyl)cyclopropane-1,1-dicarboxamide], for which, in series [3], the “XRPD Results after drying” value is recorded as “Form C”.
With `COCCNCc1ccc(-c2cc3nccc(Oc4ccc(NC(=O)C5(C(=O)Nc6ccc(F)cc6)CC5)cc4F)c3s2)nc1` [Form D], in series [3], the “XRPD Results after drying” value is on record as “remained unchanged; also recorded: Form D”. In addition, the “XRPD Results (physical stability)” value in series [4] (Acetone/water (40/60), slurry, RT) is on record as “Consistent with Form D, slight peak shifts”; in series [4] (EtOH/water (40/60), slurry, RT) it was “Consistent with Form D, slight peak shifts”; in series [4] (Water, slurry, RT), “Consistent with Form D, slight peak shifts”; in series [4] (~43% RH/RT) it was “remained unchanged; also recorded: Consistent with Form D, no significant shifts of peaks”; in series [4] (~75% RH/RT), “remained unchanged; also recorded: Consistent with Form D, no significant shifts of peaks”.
Turning to `COCCNCc1ccc(-c2cc3nccc(Oc4ccc(NC(=O)C5(C(=O)Nc6ccc(F)cc6)CC5)cc4F)c3s2)nc1` [Form H, N-(3-fluoro-4-((2-(5-(((2-methoxyethyl)amino)methyl)pyridin-2-yl)thieno[3,2-b]pyridin-7-yl)oxy)phenyl)-N-(4-fluorophenyl)cyclopropane-1,1-dicarboxamide], the “XRPD Results after drying” value in series [3] is “Form H”. Moreover, the “relative thermodynamic stability among Forms C, D and H” value in series [5] was “least thermodynamically stable”.
